The subject of series [1] is manually pulled relaxed Fn fibers (fibrillar Fn). Kind of series: Manually pulled Fn fiber binding assay (confocal microscopy). On the set-up: species or system human. Particulars: for binding to manually pulled Fn fibers (peptide signal): confocal microscopy, peptide signal vs Fn-Cy5.
Source text: Manually pulled Fn fibers were used as a model system for fibrillar Fn as described previously (W. C. Little, M. L. Smith, U. Ebneter, and V. Vogel, “Assay to mechanically tune and optically probe fibrillar fibronectin conformations from fully relaxed to breakage,” Matrix Biology, vol. 27, no. 5, pp. 451-461, June 2008). Fibers containing 5% of photolabeled Fn-Cy5 were deposited onto a stretchable silicone sheet, relaxed to half of their original length, corresponding to a total 7% molecular strain and after a blocking step with 4% bovine serum albumin in PBS, they were incubated with different concentrations of Alexa488 fluorescently labeled FnBPA5 to obtain a binding curve.
Manually pulled Fn fiber samples were imaged with an Olympus FV1000 confocal microscope using a 40× water immersion objective with a numerical aperture of 0.9. Alexa488-FnBPA5 and Fn-Cy5 channels were imaged with a 512×512 pixel resolution and photomultiplier tube voltage and laser powers were kept constant within an experiment.
Images were analyzed using Fiji-ImageJ and Matlab (MathWorks, Natick, Mass., USA). […] Dark current values were subtracted from images and pixels with intensities below a cutoff threshold and at saturation were excluded from analysis. Approximately 10 fibers were imaged per experimental condition and each of these conditions was done in triplicate. […] Data points were fit using the Hill model assuming non-cooperative binding (using the below equation) and plot using Origin.
To assess binding constant of Alexa488-FnBPA5 and of its scrambled analogue to Fn fibers a fiber stretch assay as described above and before (Little et al., Matrix Biology, vol. 27, no. 5, pp. 451-461, June 2008) was used. Fn fibers are manually pulled from a Fn solution containing 5% fluorophore labeled Fn and deposited onto a silicone membrane. Silicone membranes can then be stretched or relaxed to desired mechanical strain state.
Peptide fluorescence intensity normalized against the Cy5-intensity from the Fn-fibers for different peptide concentrations was assessed. Intensity ratio of 10 μM FnBPA5-488 was defined as saturated and all other intensity ratios were normalized with this factor.
Series [2] relates to fibrillar Fn in fibroblast ECM. Kind of series: Binding to fibrillar Fn in fibroblast-assembled ECM (colocalization). In kind it is cell-based. The conditions noted are these: normal human dermal fibroblasts, 2 days ECM, 5 μg/ml peptide, 1 hour. As to the method:
Fibroblast ECM samples (FIG. 2C) were acquired with the same microscope using an oil immersion 1.45 NA 60× objective with a pixel resolution of 1024×1024.
To achieve this, normal human dermal fibroblasts (PromoCell, Heidelberg, Germany) were cultured in alpha minimum essential medium (α-MEM) with 10% fetal bovine serum (FBS) from BioWest, Nuaillé, France, and split before reaching confluence. Cells were seeded onto Fn-coated 8-well chambered coverglasses (Lab-Tek, Nalgene Nunc, Thermo Scientific, Waltham, Mass., USA) at a density of 30×10^3 cells per cm^2 and allowed to attach to the surface before medium exchange to medium containing 50 μg/ml unlabeled Fn. Cells were cultured for 48 hours. Fibronectin was then stained using a rabbit polyclonal anti-fibronectin antibody (ab23750, abcam, Cambridge, UK) and 5 μg/ml FnBPA5-Alexa488 respectively scr-FnBPA5-Alexa488 peptide for 1 hour before fixation with a 4% paraformaldehyde solution in PBS. After fixation cells were permeabilized for 10 minutes with PBS containing 0.01% Triton X-100. After a washing step samples were blocked in 4% BSA and 4% donkey serum for 1 hour at room temperature. Samples were then incubated for 1 hour with a donkey anti-rabbit Alexa 546 (Invitrogen) secondary antibody and Phalloidin-633 (Invitrogen, Carlsbad, Calif., USA). Before imaging cell nuclei were stained using DAPI. […]

Another series has as its target soluble plasma Fn. Kind of series: Fluorescence anisotropy titration (fluorescence polarization). The conditions noted are these: 100 nM Alexa-488 peptide in PBS, Fn 0 to 1.4 μM, 20° C.; read-out: dissociation constant Kd to soluble plasma Fn. It is filed as binding, human. The method, then:
The binding affinities of Fn to FnBPA5 were determined in three independent measurements by anisotropy titrations in a Cary Eclipse Fluorescence Spectrophotometer (Agilent Technologies) equipped with automated polarizers. FnBPA5 and its scrambled derivative were synthesized with an N-terminal Alexa-488 dye. The anisotropy of 100 nM Alexa-488 labelled peptide was measured in PBS at Fn concentrations ranging from 0 to 1.4 μM. Excitation and emission were at λex 480 nm and λem 520 nm respectively with both slit 10 nm, 20° C., 5 s signal acquisition and g=1.4. The Kd values were determined by fitting the data to a one-site-binding model using Origin 7 (OriginLab Northampton, Mass., USA).
With higher Fn concentration an increasing amount of peptide is bound to Fn leading to a shift in fluorescence anisotropy.

A further series concerns the target N-terminal Fn fragments (Homo sapiens, UniProt P02751). The conditions noted are these: literature value, Meenan et al. 2007; read-out: Kd to N-terminal Fn fragments in solution; cited from earlier work.
How the values of series [3] were obtained:
To assess in vitro plasma stability 12 MBq ^111In-[FnBPA5-NODAGA] and ^111In-[scraFnBPA5-NODAGA] were incubated with 400 μL human blood plasma at 37° C. At different time points (0, 0.25, 0.5, 1, 2, 48 and 72 hours) 40 μL of plasma was taken out and precipitated by the addition of 200 μL EtOH, acetonitrile, 0.1% TFA.

In series [4] the test system is PC-3 xenografts. The method, then:
(§1) PC-3 cells (human prostate carcinoma cell line, ACC-465, DSMZ, Braunschweig, Germany) were cultured in Roswell Park Memorial Institute 1640 medium (Amimed, Bioconcept, Switzerland). Cells were cultured as monolayers at 37° C. in a humidified atmosphere containing 5% CO2.
(§2) In vivo experiments were approved by the local veterinarian department and conducted in accordance with the Swiss law for animal protection. The 3-5 weeks-old female CD1 nude mice were purchased from Charles River (Germany). After 5-7 days acclimatisation period, the tumor cells were subcutaneously inoculated in both shoulders of the mice (3*106-1*107 cells in 100-150 μL PBS per side). Experiments were performed 3-4 weeks after inoculation.
SPECT/CT experiments were performed using a 4-head multiplexing multipinhole camera (NanoSPECT/CTplus, Bioscan Inc., Washington D.C., USA). CT scans were performed with a tube voltage of 45 kV and a tube current of […]. SPECT scans at 24, 72 and 96 hours post injection were obtained with an acquisition time of 20-90 sec. per view resulting in a total scanning time of 20-45 min per mouse.
The distribution of ^111In-radiolabeled FnBPA5 peptide injected into the tail vein of a living mouse was monitored by means of SPECT/CT for a period of 96 hours. […] (2.4 nmol, 100 μL PBS) into the tail vein. […] SPECT images were reconstructed using HiSPECT software (Scivis GmbH, Goettingen, Germany). The images were reconstituted and processed with InVivoScope® software (BioscanInc., Washington D.C., USA) and zoom in videos were generated using Adobe Flash.
To visualize additional binding of the tracer to tissues throughout the body, the kidneys were subsequently removed from the sacrificed mice and the scan was repeated.

Another series is described as follows: in vivo. Particulars: female, CD1 nude, mouse, iv, 150 kBq, total radioactivity. As to the method: as §1, §2
(§3) The tissue-specific peptide pharmacokinetics, particularly in cancer stroma, were assessed in groups of 4 PC-3-bearing mice that were injected with approximately 150 kBq ^111In-FnBPA5 respectively ^111In-scraFnBPA5 (2.4 nmol/[…] PBS) into the tail vein and biodistribution of peptides was analyzed at different time points (1, 4, 24 and 96 hours post injection (p.i. and after sacrification)) by means of percentage of injected activity per gram tissue (% IA/g).

Series [5] has as its system PC-3 xenografts. Kind of series: In vivo blocking study with pre-injected unlabeled FnBPA5. On the set-up: species or system mouse. The conditions noted are these: for effect of pre-injection of unlabeled FnBPA5 on accumulation: approximately 10-fold excess unlabeled FnBPA5, 4 hour post-injection. The method, then: (A) Biodistribution of FnBPA5 in PC-3 bearing mice was monitored at different time points in various organs. […] (C) Blocking studies were performed and uptake was analyzed 4 hour post-injection.
as §3

A further series concerns the target relaxed Fn fibers. Kind of series: Displacement assay on manually pulled Fn fibers against FnBPA5-Alexa488. In kind it is binding, human. Particulars: cold labeled competitor. As to the method:
Relaxed Fn fibers were incubated with FnBPA5-Alexa488 peptide, washed and then incubated with different concentrations of FnBPA5-In to measure the concentration of competitor.
To assess whether the presence of the chelator for the radiolabeled ^111In-isotope impairs FnBPA5 binding to manually pulled Fn fibers, a displacement assay was performed using ^natIn-FnBPA5 (cold labeled) against FnBPA5-Alexa488.

Where [6] appears, read: 96 hours post injection, 12 MBq, tail vein.
Where [7] appears, read: 96 hours post injection, kidneys removed.

Entries after “also recorded” stand apart in the source; their conditions may differ. Where two headings read alike, the source gives them in different places. Where a SMILES comes first, the peptide text is derived from it. Primed or numbered codes have the meaning given here. Where no end group is shown, it is not given here. The star is where a group is joined. X1 = O=C(O)CN1CCN(CC(=O)O)CCN(C(CCC(=O)NCCN2C(=O)CC(*)C2=O)C(=O)O)CC1; NODAGA′ = NODAGA chelator (maleimide-conjugated) for radiolabelling; Alexa 488 = Alexa Fluor 488 fluorescent dye

manually pulled relaxed Fn fibers (fibrillar Fn), sequence (P02751 32-290 limits assumed): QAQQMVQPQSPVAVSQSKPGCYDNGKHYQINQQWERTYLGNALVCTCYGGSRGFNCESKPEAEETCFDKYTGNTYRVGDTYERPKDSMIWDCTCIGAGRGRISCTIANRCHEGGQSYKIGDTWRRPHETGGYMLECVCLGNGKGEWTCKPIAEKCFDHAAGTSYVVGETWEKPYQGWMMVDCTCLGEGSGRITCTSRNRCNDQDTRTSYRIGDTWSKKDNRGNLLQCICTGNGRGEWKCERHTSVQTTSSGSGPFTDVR
fibrillar Fn in fibroblast ECM, sequence (P02751 32-290 limits assumed): as above
soluble plasma Fn, sequence (P02751 32-290 limits assumed): as above
relaxed Fn fibers, sequence (P02751 95-273 limits assumed): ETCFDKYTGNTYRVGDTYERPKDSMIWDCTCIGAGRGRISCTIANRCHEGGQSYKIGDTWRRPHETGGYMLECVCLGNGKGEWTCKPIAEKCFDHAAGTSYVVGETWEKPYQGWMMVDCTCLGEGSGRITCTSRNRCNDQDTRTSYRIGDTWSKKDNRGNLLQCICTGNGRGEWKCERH
N-terminal Fn fragments, sequence (P02751 52-272 limits assumed): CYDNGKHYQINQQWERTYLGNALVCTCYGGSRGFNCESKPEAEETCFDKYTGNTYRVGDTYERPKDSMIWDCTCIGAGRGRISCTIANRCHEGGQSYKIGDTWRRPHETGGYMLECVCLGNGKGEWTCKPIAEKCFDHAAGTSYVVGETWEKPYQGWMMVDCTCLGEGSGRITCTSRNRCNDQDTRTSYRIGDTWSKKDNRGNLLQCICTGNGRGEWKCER

Turning to “CGGGQVTTESNLVEFDEESTKGIVTGAVSDHTTVEDTK [FnBPA5]”, in series [1], the “binding to manually pulled Fn fibers (peptide signal)” value was “specific peptide binding; also recorded: significantly higher binding; also recorded: much stronger than the scrambled control derivative”. Besides, the dissociation constant Kd in [1] (relaxed fibers, 7% molecular strain, Alexa488-labelled peptide, Hill fit, read-out: dissociation constant Kd to manually pulled relaxed Fn fibers) was 0.028 µM; on soluble plasma Fn, 0.075 µM; at N-terminal Fn fragments, 0.0442 µM. The “binding to fibrillar Fn in fibroblast ECM” value in series [2] was “specific binding”. For the same molecule, in series [3] (37° C., blood plasma and water, 1 hour time point), the plasma stability result is “high stability”. The SPECT/CT kidney uptake result with PC-3 xenografts [4] (setting [6]) was “dominant kidney uptake”. In addition, in the series on PC-3 xenografts [4] (setting [7]), the “SPECT/CT uptake in other organs after kidney removal” value (shortened to “SPECT/CT uptake in other organs”) was “uptake in tumors and liver”.

For the molecule “scraFnBPA5: Negative control of FnBPA5 with scrambled sequence (SEQ ID NO 296) (CGSEQEDLTGTKVDFGETIVVNEATETVTSGSTHGTKV) [reference compound]”, in series [1], the “binding to manually pulled Fn fibers (peptide signal)” value is “within the background noise”. Besides, in series [2], the “binding to fibrillar Fn in fibroblast ECM” value is listed as “unspecificly attached to the matrix”. In addition, in series [3], the plasma stability entry is on record as “high stability”. Moreover, in the series on PC-3 xenografts [4] (mouse, in vivo), the SPECT/CT kidney uptake result was “dominant kidney uptake” and the “SPECT/CT uptake in other organs” value is “does not show any specific uptake in other organs”.

With `CC[C@H](C)[C@H](NC(=O)CNC(=O)[C@H](CCCCN)NC(=O)[C@@H](NC(=O)[C@H](CO)NC(=O)[C@H](CCC(=O)O)NC(=O)[C@H](CCC(=O)O)NC(=O)[C@H](CC(=O)O)NC(=O)[C@H](Cc1ccccc1)NC(=O)[C@H](CCC(=O)O)NC(=O)[C@@H](NC(=O)[C@H](CC(C)C)NC(=O)[C@H](CC(N)=O)NC(=O)[C@H](CO)NC(=O)[C@H](CCC(=O)O)NC(=O)[C@@H](NC(=O)[C@@H](NC(=O)[C@@H](NC(=O)[C@H](CCC(N)=O)NC(=O)CNC(=O)CNC(=O)CNC(=O)[C@@H](N)CSC1CC(=O)N(CCNC(=O)CCC(C(=O)O)N2CCN(CC(=O)O)CCN(CC(=O)O)CC2)C1=O)C(C)C)[C@@H](C)O)[C@@H](C)O)C(C)C)[C@@H](C)O)C(=O)N[C@H](C(=O)N[C@H](C(=O)NCC(=O)N[C@@H](C)C(=O)N[C@H](C(=O)N[C@@H](CO)C(=O)N[C@@H](CC(=O)O)C(=O)N[C@@H](Cc1c[nH]cn1)C(=O)N[C@H](C(=O)N[C@H](C(=O)N[C@H](C(=O)N[C@@H](CCC(=O)O)C(=O)N[C@@H](CC(=O)O)C(=O)N[C@H](C(=O)N[C@@H](CCCCN)C(=O)O)[C@@H](C)O)C(C)C)[C@@H](C)O)[C@@H](C)O)C(C)C)[C@@H](C)O)C(C)C` (stereo partly drawn) [^111In-FnBPA5, metal not drawn] (H-C(X1)GGGQVTTESNLVEFDEESTKGIVTGAVSDHTTVEDTK-OH; N-terminus and C-terminus assumed), the tissue uptake at 1 h in “in vivo” (kidney accumulation, kidneys, 1 hour p.i. (maximum)) turned out to be 141 ± 18.1 %ID/g; in the series “in vivo” (tumor uptake, PC-3 tumor, 1 h p.i. (maximum)), 4.74 ± 0.77 %ID/g. For the same molecule, in the series with PC-3 xenografts [5], the “effect of pre-injection of unlabeled FnBPA5 on accumulation” value is “significant reduction in the uptake of ^111In-FnBPA5 in both liver and tumor”. The “uptake decrease in liver by blocking” value in the series on PC-3 xenografts [5] (pre-injection of 100 μg unlabeled FnBPA5, 4 hour post-injection, liver) amounted to 58.2%. In the series with PC-3 xenografts [5] (pre-injection of 100 μg unlabeled FnBPA5, 4 hour post-injection, tumor), the “uptake decrease in tumor tissue by blocking” value was 35.6%. For the same molecule, the “plasma stability, peptide intact” value in series [3] (human blood plasma, 37° C., after 72 hours) was “still intact”. In addition, the SPECT/CT kidney uptake result with PC-3 xenografts [4] (setting [6]) is “mainly accumulated in the kidneys”. Besides, the “SPECT/CT uptake in other organs” value in the series on PC-3 xenografts [4] (setting [7]) was “predominant uptake in tumor and liver”.

In the case of “^natIn-FnBPA5: Cold labeled (natural indium) chelator-conjugated FnBPA5 (C(NODAGA′)GGGQVTTESNLVEFDEESTKGIVTGAVSDHTTVEDTK; also: natural indium complexed by chelator)”, the half-inhibitory concentration (IC50) on relaxed Fn fibers came out at 0.049 µM.

As to “Alexa 488-FnBPA5: FnBPA5 with N-terminal Alexa-488 dye ({Alexa 488}-CGGGQVTTESNLVEFDEESTKGIVTGAVSDHTTVEDTK)”, at soluble plasma Fn, the Kd was 0.075 µM.

Take `CC[C@H](C)[C@H](NC(=O)[C@@H](NC(=O)[C@H](CCC(=O)O)NC(=O)CNC(=O)[C@H](Cc1ccccc1)NC(=O)[C@H](CC(=O)O)NC(=O)[C@@H](NC(=O)[C@H](CCCCN)NC(=O)[C@@H](NC(=O)CNC(=O)[C@@H](NC(=O)[C@H](CC(C)C)NC(=O)[C@H](CC(=O)O)NC(=O)[C@H](CCC(=O)O)NC(=O)[C@H](CCC(N)=O)NC(=O)[C@H](CCC(=O)O)NC(=O)[C@H](CO)NC(=O)CNC(=O)[C@@H](N)CSC1CC(=O)N(CCNC(=O)CCC(C(=O)O)N2CCN(CC(=O)O)CCN(CC(=O)O)CC2)C1=O)[C@@H](C)O)[C@@H](C)O)C(C)C)[C@@H](C)O)C(=O)N[C@H](C(=O)N[C@H](C(=O)N[C@@H](CC(N)=O)C(=O)N[C@@H](CCC(=O)O)C(=O)N[C@@H](C)C(=O)N[C@H](C(=O)N[C@@H](CCC(=O)O)C(=O)N[C@H](C(=O)N[C@H](C(=O)N[C@H](C(=O)N[C@@H](CO)C(=O)NCC(=O)N[C@@H](CO)C(=O)N[C@H](C(=O)N[C@@H](Cc1c[nH]cn1)C(=O)NCC(=O)N[C@H](C(=O)N[C@@H](CCCCN)C(=O)N[C@H](C(=O)O)C(C)C)[C@@H](C)O)[C@@H](C)O)[C@@H](C)O)C(C)C)[C@@H](C)O)[C@@H](C)O)C(C)C)C(C)C` (stereo partly drawn) [^111In-scraFnBPA5, metal not drawn, reference compound] (H-C(X1)GSEQEDLTGTKVDFGETIVVNEATETVTSGSTHGTKV-OH; N-terminus and C-terminus assumed): the tissue uptake at 1 h in “in vivo” (kidney accumulation) was found to be 164 ± 18.9 %ID/g. Besides, in the series with PC-3 xenografts [5], the “effect of pre-injection of unlabeled FnBPA5 on accumulation” value is reported as “no significant differences”. Besides, in the series on PC-3 xenografts [4] (mouse, in vivo), the SPECT/CT kidney uptake entry is given as “mainly accumulated in the kidneys” and the “SPECT/CT uptake in other organs” value is “no uptake into other tissues was visible”.
